SMILES | melting point [°C]
CN(O)C(=O)Nc1ccc([N+](=O)[O-])c(C(F)(F)F)c1 | 129 to 130
Cc1cn(-c2cc(C)c(N)c(C#N)c2)c(C)n1 | 214 to 217
CC12CCC(=O)C=C1CCC(=Cc1cccs1)C2=O (configuration not stated) | 107
COC(N)=CC(=O)C(C)(C)C | 79 to 79.5
CC(C)[C@@H](NC(=O)c1cnc(N2CCC(N3C(=O)OCc4ccccc43)CC2)c(Cl)c1)C(N)=O | 140 to 143
O=C(O)/C=C/c1ccc(N2CCCC2)cc1 | 265
COC(=O)c1c(C(F)F)nc(C(F)(F)F)c(C(O)c2cccs2)c1CC(C)C (configuration not stated) | 78 to 88
C#CC(C)Nc1c(C)cccc1C (configuration not stated) | 32 to 33
CCOC(=O)C1=Cc2cc(Br)ccc2N(C=O)CC1 | 150 to 152
O=C1c2ccccc2C(=O)N1CCS(=O)(=O)CCO | 120 to 122
CC1(C)[C@@H]2CC3[C@H](C(=O)O)[C@@]3(C)C[C@@H]21 (some centres not stated) | 86
Nc1ccc(-c2cnns2)cc1 | 126 to 128
O=c1[nH][nH]c2c1c(O)nc1cc(Cl)ccc12 | > 350
CCOc1cc(-c2cc(C(F)F)n3ncc(-c4nc(-c5ccc(N)nc5)no4)c3n2)ccc1C(F)(F)F | 250
CC(C)(C)OC(=O)N1CCc2c(n(CCO)c3cc(Cl)c(Cl)cc23)CC1 | 130 to 133
CC1(N)CN(c2c(F)cc3c(=O)c(C(=O)O)cn(-c4nc(N)c(F)cc4F)c3c2Cl)C1 | 280
Cc1ccc(S(=O)(=O)NO[Si](C)(C)C)cc1 | 87 to 90
C=CCNc1c([N+](=O)[O-])cc(C(=O)OC)c(Nc2ccc(I)cc2F)c1F | 153 to 154
Cn1nc(Cl)c(Cl)cc1=O | 97
CN1CCN(c2nc3c(cc2F)c(=O)c(C(=O)O)cn3C2CSC2)CC1 | 270 to 280
COC(CN(C)C(=O)Nc1nnc(C(C)Oc2cc(Cl)cc(Cl)c2)s1)OC (configuration not stated) | 149 to 152
COc1cc(C(=O)O)cc(OC)c1Cl | 102 to 103
OCCC1(c2ccc(Cl)c(Cl)c2)CCNC1 (configuration not stated) | 91 to 94

SMILES | melting point [°C]
CN1CCN(Cc2c(C(=O)O)nc3c(=O)[nH]c4cc(C(F)(F)F)ccc4n23)CC1 | > 240
CC1N(C)c2cc([N+](=O)[O-])ccc2C1(C)C (configuration not stated) | 55 to 59
CCc1nc2cnc3cc(C=CC(=O)N(C)C)ccc3c2n1CC(C)(C)O | 196 to 198
CC(C)(C)c1cc(C(Cl)Cl)c(Cl)c(C(C)(C)C)c1O | 176 to 177
O[C@H]1CC[C@H](CN2CCC(=C3c4ccc(F)cc4Sc4ccc(C(F)(F)F)cc43)CC2)CC1 | 144 to 146
O=C(c1ccc(Cl)c([N+](=O)[O-])c1)c1nccs1 | 118 to 119
COc1ccc(OC)c(-c2c(C(C)C)cc(C(C)C)cc2C(C)C)c1I | 189 to 191
CCOC(=O)c1cn2c3c(c(-c4cc(C)nc(C)c4)c(F)c(F)c3c1=O)OC[C@@H]2C | 295 to 297
O=S(=O)(NC1CCCCC1)c1ccc2c(c1)S(=O)(=O)NC1CCCN21 (configuration not stated) | 195 to 197
NCC1Cc2cc(C(F)(F)F)cc(-c3ccc(F)c(Cl)c3)c2O1 (configuration not stated) | > 250
CCc1ccc2c(c1)C(=O)CCCC(=O)N2 | 138 to 140
C=C=Cn1c(=O)sc2cc(F)c(-n3c(=O)cc(C)n(C)c3=O)cc21 | > 250
N#Cc1ccc(C2=NOC3(CCN(C(=O)CCCC(=O)O)CC3)C2)cc1 | 183 to 185
CCCc1nn(CC)c2c(=O)[nH]c(-c3cc(S(=O)(=O)N4CCN(CCO)CC4)ccc3OCC)nc12 | 191 to 193
C=CCc1cc(OC)c(OC)cc1CC(C#N)=COC | 77 to 79
Clc1cnc2cnc(Cl)nc2c1 | 177 to 178
Cc1sc(N2C(=O)OCC2(C)C)nc1-c1ccc(C#N)cc1 | 192 to 193
O=C(O)c1cccc(-c2cnn3c(O)ncnc23)c1 | > 300
NCc1ccc(CC(N)=O)cc1 | 138 to 140
O=C1CSCN1c1cc(Cl)cc(Cl)c1 | 87 to 92
CN(C)c1cccc(-c2nc3ncccc3o2)c1 | 208 to 209
CC(C)Cn1cc(C(N)=O)c(N)n1 | 154 to 158

The remaining lines, values ahead:

melting point [°C] | SMILES
246 to 248 | Cn1c(CCCCl)nc2ccc3ccccc3c21
232 | COC(=O)c1cccc(-c2c(C)c(C(=O)c3ccc(N)c(C(=O)OC)c3)n3ccccc23)c1
48 to 50 | c1cc2c3c(cccc3c1)C(NCCCCCCCn1ccnc1)=N2
96 to 97 | N#Cc1ccc(Oc2ccc(CC(=O)OCc3ccccc3)cc2)nc1
189 to 191 | COc1cccc(Nc2ccc(Nc3ncnc4cc(-c5ccccc5)sc34)cc2)c1
93 to 94 | CCCC(=O)c1cn(C)cc(-c2cccc(C(F)(F)F)c2)c1=O
244 to 247 | O=C1Nc2ccc(Cl)c(Cl)c2C1c1ccccc1F (configuration not stated)
47 to 48 | COC(=O)c1cccc(OCc2ccc3ccccc3c2)c1C
180 to 181 | COc1ccc2c(c1)c(-c1ccccc1)nc(=S)n2CC1CC1
177 to 178 | COc1ccc(C(=O)Nc2cc(-c3c(-c4cccc(C)c4)nc4cccnn34)ccn2)cc1
151 to 152 | CCCCOc1ccc(C(=O)NCCCCCCCNC(=O)c2ccc(OCCCC)cc2)cc1
123 to 124 | CCOC(=O)c1ccc(-c2c(Cl)c(CCl)nc3sc4c(c23)CCN(C(=O)OCc2ccccc2)C4)cc1
180 to 185 | CCCNC(C)=C1C(=O)OC(=O)C(C(=O)C=Cc2cccc(OC)c2OC)=C1O
152 to 154 | CCC(C)c1ccc(-n2c(-c3cc(C)c(OCCO)c(C)c3)nc3ccc(OC)cc3c2=O)cc1 (configuration not stated)
199 to 201 | CC(=O)Nc1nc(CCc2ccc(N)cc2)c(C(=O)NCc2ccc(C(F)(F)F)cc2)s1
117 to 119 | CCc1ccc(-c2cccc(-c3ccnc4c(C(=O)c5cccs5)cnn34)c2)cc1
188 to 190 | Cc1ccc(CC(CS)C(=O)Nc2cccc(C(=O)O)c2)cc1 (configuration not stated)
137 to 138 | CCCCNc1cc(CN(Cc2ccccc2)C(=O)c2ccccc2)cc(S(N)(=O)=O)c1Oc1ccccc1
183 to 184 | CC(C)(C)c1cc(CCc2ccccc2NC(=O)N(Cc2ccccc2)C2CCCCCC2)cc(C(C)(C)C)c1O

melting point [°C] | SMILES
163 | Cc1nnc(-c2ccccc2)n1-c1ccccc1
138 to 139 | CC(O)(C(=O)Nc1ccc(C(=O)c2ccccc2)cc1F)C(F)(F)F (configuration not stated)
166 to 168 | C[C@@H]1[C@H]2C(=O)N(Cc3ccccc3)C(=O)[C@H]2[C@@H](c2ccc(Br)cc2)N1C (racemic)
136 to 138 | COc1ccc(COc2cccnc2NC(=S)Nc2ccc(Cl)cc2)cc1
218 | C#CCOc1ccc(C2c3[nH]c4ccccc4c3CC(C(=O)OC)N2C(=O)CCl)cc1 (configuration not stated)
107 to 108 | CCOC(=O)c1c(O)c(Br)c(Br)n1Cc1ccccc1
182 | COc1ccc(Cl)cc1C(=O)NCCc1ccc(CC2SC(=O)NC2=O)cc1 (configuration not stated)
122 to 123 | COC(CNc1nc(-c2ccccc2)c2cc(Cl)ccc2n1)OC
158 to 160 | N#Cc1c(N2CCCC2)cc(-c2ccccc2)c2c1-c1ccccc1C2
242 to 244 | S=c1[nH]c2ccccc2cc1-c1ccccc1
153 to 157 | CCCCc1nccn1Cc1ccc2oc(-c3ccccc3C(=O)O)cc2c1
123 to 124 | O=C1NC(C(=O)NCCO[N+](=O)[O-])C(Cc2ccccc2)S1 (configuration not stated)
177 | COc1ccccc1C1CCC(=O)C=C1C(=O)O (racemic)
114 to 115 | CCCCc1ncc(/C=C(/CO)Cc2cccs2)n1Cc1ccccc1Cl
82 to 84 | CCOC(=O)/C=C(/c1ccc(Cl)cc1)c1cccc(OC)c1OC
267 to 268 | COc1ccc(C(=O)Nc2ccncc2)c2c1oc1ccc(NC(C)=O)cc12
89 to 92 | CCCCCCCCCCCCCCCc1cc2cc(C(=O)OC)ccc2[nH]1
151 to 152 | CC(C)NC(=O)N1CC(Oc2ccc(C(F)(F)F)cc2)C1
178 to 180 | CC1(C)CCC(C)(C)c2cc(CC#Cc3ccc(C(=O)O)c(O)c3)ccc21

melting point [°C] | SMILES
95 to 98 | COC(=O)[C@H](Cc1cccc2ccccc12)NC(=O)[C@H](CC(=O)OC(C)(C)C)NC(=O)c1cccc(NC(=O)OCc2ccccc2)c1
92 to 94 | CC(C)n1nc(-c2ccc(OCCCCl)cc2)c2sccc2c1=O
83 to 83.5 | COc1ccc(C2=NCCc3c(C)cccc32)cc1
180 to 183 | Cc1ccc(S(=O)(=O)Oc2ccc(S(=O)(=O)c3c(C(C)C)cn4ccccc34)cc2)cc1
171 to 173 | CCCc1c([C@@H]2C[C@H]2c2ccccc2)oc2ccc(C(=O)OC)cc2c1=O (relative stereo)
164 to 167 | COc1ccc2c(c1)c(Cc1cc(=O)n(-c3cccc(Br)c3)[nH]1)c(C)n2C(=O)c1ccc(Cl)cc1
193 to 194 | CC(C)Cc1nc2ccc(Br)cc2c(-c2ccccc2)c1CNC(=O)OC(C)(C)C
167 to 169 | O=C1Cc2cccc(-c3ccccc3)c2N1
91 to 93 | O=C(Nc1ccc(C2CCCCC2)cc1)c1ncccc1O
216 to 218 | O=C(CS(=O)(=O)N1CC=C(c2ccc(-c3ccccc3)cc2)CC1)NO
82 to 90 | O=c1oc2c(c(O)c1C(c1ccccc1)C1CC1)CCCCC2CC1CCCOC1 (configuration not stated)
160 to 162 | COc1ccc(NC(C)=O)c(O)c1C(C)=O
126 to 127 | CCOC(=O)c1ccc2nc(C)n(Cc3ccccc3Cl)c2c1
256 to 257 | CCc1nnc(NC(=O)C2c3ccccc3Oc3ccccc32)o1
> 260 | COc1cccc2[nH]c3c(c12)C(=O)N=NC3=O
187 to 188 | CCOC(=O)C1=C(C)NC2=C(C(=O)N(CCN(CC)CC)C2)C1c1ccccc1[N+](=O)[O-] (configuration not stated)
130 | CCOC(=O)[C@H](O)[C@@H](NC(=O)OC(C)(C)C)c1ccc(C)cc1
141 to 146 | CCCCC=Cc1ccc(Cc2c(C)[nH]c3ccc(C(=O)OC)cc23)c(Cl)c1
148 to 149 | CC(Oc1ccc(CNc2ccc(Cl)cc2)cc1)C(=O)O (configuration not stated)
